Starred links: 1 amine or outer side, 2 acyl side, 3 side chain; linkers in the order of their positions; H or OH if unused. Positions of bridges follow the written chain, without caps; N, C: chain ends. Non-standard residues stand in square brackets, D forms with d. Residues, ends and D or L forms follow the SMILES beside them. *: point of attachment. Bip(4'-(3-HOOC-benzamido)) = N[C@@H](Cc1ccc(-c2ccc(NC(=O)c3cccc(C(=O)O)c3)cc2)cc1)C(=O)O; Bip(4'-NH) = O=C([C@H](Cc1ccc(-c2ccc(N[*:3])cc2)cc1)N[*:1])[*:2]; X45 = CS(=O)(=O)Nc1ccc(CNC(=N)NCCC[C@@H](N[*:1])C(=O)[*:2])cc1; Indazole3carbonyl(1-CH2COOH) = O=C(O)Cn1nc(C(=O)*)c2ccccc21; Bip(4'-COOH) = N[C@@H](Cc1ccc(-c2ccc(C(=O)O)cc2)cc1)C(=O)O; Bip(4'-NHAc) = CC(=O)Nc1ccc(-c2ccc(C[C@H](N)C(=O)O)cc2)cc1; Ala(morpholin-4-yl) = N[C@@H](CN1CCOCC1)C(=O)O; Benzoyl(3-OCH2COOH) = O=C(O)COc1cccc(C(=O)*)c1; Phe(3-CONH2) = NC(=O)c1cccc(C[C@H](N)C(=O)O)c1; Bip = N[C@@H](Cc1ccc(-c2ccccc2)cc1)C(=O)O; X48 = CC(C)(O)Cn1nc(C(=O)*)c2ccccc21; 2Pal = N[C@@H](Cc1ccccn1)C(=O)O; 2Thi = N[C@@H](Cc1cccs1)C(=O)O; Cha = N[C@@H](CC1CCCCC1)C(=O)O; X20 = O=C(c1csc(-c2ccncc2)n1)*; Chg = N[C@H](C(=O)O)C1CCCCC1; Tle = CC(C)(C)[C@H](N)C(=O)O; Sar = CNCC(=O)O
biological target: TNFα (Homo sapiens, UniProt P01375); experiment: TNF-Induced HEK-Blue Assay; format: cell-based; settings: not given
Sequence (P01375 77-233 limits assumed): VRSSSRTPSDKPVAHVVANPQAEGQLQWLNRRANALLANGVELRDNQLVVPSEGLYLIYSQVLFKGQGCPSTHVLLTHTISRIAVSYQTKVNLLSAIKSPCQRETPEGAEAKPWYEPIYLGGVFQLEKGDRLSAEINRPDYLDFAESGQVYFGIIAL

Row | SMILES | IC50 [µM]
1 | CC[C@H](C)[C@@H]1NC(=O)[C@@H]2CCCN2C(=O)[C@H](C(C)C)NC(=O)[C@H](CCCNC(=N)N)NC(=O)[C@H](CC(=O)O)NC(=O)[C@@H]2CCCN2C(=O)CN(C)C(=O)[C@H](Cc2ccc(-c3ccccc3)cc2)NC(=O)[C@H](Cc2ccc(-c3ccccc3)cc2)NC(=O)[C@H](Cc2ccccc2)NC(=O)CSC[C@@H](C(=O)NCC(N)=O)NC(=O)[C@H](CC(C)C)NC(=O)[C@H](CCCNC(=N)N)NC1=O [Example 20] ({CH2CO}-F[Bip][Bip][Sar]PDRVPIRLCG-NH2; thioether N-13) | 0.2 to 2
2 | CC(C)C[C@@H]1NC(=O)[C@H](CCCNC(=N)N)NC(=O)[C@H](C(C)C)NC(=O)[C@@H]2CCCN2C(=O)[C@H](C(C)C)NC(=O)[C@@H](CCCNC(=N)N)NC(=O)[C@H](CC(=O)O)NC(=O)[C@@H]2CCCN2C(=O)CN(C)C(=O)[C@H](Cc2ccc(-c3ccc(NC(=O)c4nn(CC(C)(C)O)c5ccccc45)cc3)cc2)NC(=O)[C@H](Cc2ccc(-c3ccccc3)cc2)NC(=O)[C@H](CN2CCOCC2)NC(=O)CSC[C@@H](C(=O)NCC(N)=O)NC1=O [Example 355] ({CH2CO}-[Ala(morpholin-4-yl)][Bip][Bip(4'-NH)](X48)[Sar]PD[dR]VPVRLCG-NH2; thioether N-13) | < 0.05
3 | CC(C)C[C@@H]1NC(=O)[C@H](CCCNC(=N)N)NC(=O)[C@H](C(C)C)NC(=O)[C@@H]2CCCN2C(=O)[C@H](C(C)C)NC(=O)[C@@H](CCCNC(=N)NCc2ccc(NS(C)(=O)=O)cc2)NC(=O)[C@H](CC(=O)O)NC(=O)[C@@H]2CCCN2C(=O)CN(C)C(=O)[C@H](Cc2ccc(-c3ccc(NC(=O)c4nn(CC(=O)O)c5ccccc45)cc3)cc2)NC(=O)[C@H](Cc2ccc(-c3ccccc3)cc2)NC(=O)[C@H](CN2CCOCC2)NC(=O)CSC[C@@H](C(=O)NCC(N)=O)NC1=O [Example 427] ({CH2CO}-[Ala(morpholin-4-yl)][Bip][Bip(4'-NH)](Indazole3carbonyl(1-CH2COOH))[Sar]PD[X45]VPVRLCG-NH2; thioether N-13) | 0.05 to 0.2

same assay, conditions: HEK-Blue-CD40L cells, NF-kB-driven secreted alkaline phosphatase reporter; TNFα 0.5 ng/ml; 18 h; read-out: TNF induced HEK-Blue assay IC50 value

Row | IC50 [µM] | SMILES
4 | < 0.05 | CC(=O)Nc1ccc(-c2ccc(C[C@@H]3NC(=O)[C@H](Cc4ccc(-c5ccccc5)cc4)NC(=O)[C@H](CN4CCOCC4)NC(=O)CSC[C@@H](C(=O)NCC(N)=O)NC(=O)[C@H](CC(C)C)NC(=O)[C@H](Cc4ccccc4)NC(=O)[C@H](C4CCCCC4)NC(=O)[C@@H]4CCCN4C(=O)[C@H](C(C)C)NC(=O)[C@@H](CCCNC(=N)N)NC(=O)[C@H](CC(=O)O)NC(=O)[C@H](Cc4ccccn4)NC(=O)CN(C)C3=O)cc2)cc1 [Example 454] ({CH2CO}-[Ala(morpholin-4-yl)][Bip][Bip(4'-NHAc)][Sar][2Pal]D[dR]VP[Chg]FLCG-NH2; thioether N-13)
5 | < 0.05 | CC[C@H](C)[C@@H]1NC(=O)[C@@H]2CCCN2C(=O)[C@H]([C@@H](C)CC)NC(=O)[C@@H](CCCNC(=N)N)NC(=O)[C@H](CC(=O)O)NC(=O)[C@H](Cc2cnc[nH]2)NC(=O)CN(C)C(=O)[C@H](Cc2ccc(-c3ccc(NC(C)=O)cc3)cc2)NC(=O)[C@H](Cc2ccc(-c3ccc(C(=O)O)cc3)cc2)NC(=O)[C@H](CN2CCOCC2)NC(=O)CSC[C@@H](C(=O)NCC(N)=O)NC(=O)[C@H](CC(C)C)NC(=O)[C@H](Cc2cnc[nH]2)NC1=O [Example 292] ({CH2CO}-[Ala(morpholin-4-yl)][Bip(4'-COOH)][Bip(4'-NHAc)][Sar]HD[dR]IPIHLCG-NH2; thioether N-13)
6 | < 0.05 | CC(=O)Nc1ccc(-c2ccc(C[C@@H]3NC(=O)[C@H](Cc4ccc(-c5ccc(C(=O)O)cc5)cc4)NC(=O)[C@H](C(C)(C)C)NC(=O)CSC[C@@H](C(=O)NCC(N)=O)NC(=O)[C@H](CC(C)C)NC(=O)[C@H](Cc4cnc[nH]4)NC(=O)[C@H](C(C)C)NC(=O)[C@@H]4CCCN4C(=O)[C@H](C(C)C)NC(=O)[C@@H](CCCNC(=N)N)NC(=O)[C@H](CC(=O)O)NC(=O)[C@H](Cc4ccccc4)NC(=O)CN(C)C3=O)cc2)cc1 [Example 261] ({CH2CO}-[Tle][Bip(4'-COOH)][Bip(4'-NHAc)][Sar]FD[dR]VPVHLCG-NH2; thioether N-13)
7 | < 0.05 | CC[C@H](C)[C@@H]1NC(=O)[C@@H](CCCNC(=N)N)NC(=O)[C@H](CC(=O)O)NC(=O)[C@H](Cc2cnc[nH]2)NC(=O)CN(C)C(=O)[C@H](Cc2ccc(-c3ccc(NC(=O)c4cccc(C(=O)O)c4)cc3)cc2)NC(=O)[C@H](Cc2ccc(-c3ccccc3)cc2)NC(=O)[C@H](CC2CCCCC2)NC(=O)CSC[C@@H](C(=O)NCC(N)=O)NC(=O)[C@H](CC(C)C)NC(=O)[C@H](Cc2cnc[nH]2)NC(=O)[C@H](C(C)C)NC(=O)[C@@H]2CCCN2C1=O [Example 305] ({CH2CO}-[Cha][Bip][Bip(4'-(3-HOOC-benzamido))][Sar]HD[dR]IPVHLCG-NH2; thioether N-13)
8 | < 0.05 | CC(=O)Nc1ccc(-c2ccc(C[C@@H]3NC(=O)[C@H](Cc4ccc(-c5ccc(C(=O)O)cc5)cc4)NC(=O)[C@H](CN4CCOCC4)NC(=O)CSC[C@@H](C(=O)NCC(N)=O)NC(=O)[C@H](CC(C)C)NC(=O)[C@H](Cc4cccc(C(N)=O)c4)NC(=O)[C@H](C(C)C)NC(=O)[C@@H]4CCCN4C(=O)[C@H](C(C)C)NC(=O)[C@@H](CCCNC(=N)N)NC(=O)[C@H](CC(=O)O)NC(=O)[C@H](Cc4ccccc4)NC(=O)CN(C)C3=O)cc2)cc1 [Example 458] ({CH2CO}-[Ala(morpholin-4-yl)][Bip(4'-COOH)][Bip(4'-NHAc)][Sar]FD[dR]VPV[Phe(3-CONH2)]LCG-NH2; thioether N-13)
9 | 0.05 to 0.2 | CC(=O)Nc1ccc(-c2ccc(C[C@@H]3NC(=O)[C@H](Cc4ccc(-c5ccccc5)cc4)NC(=O)[C@H](CN4CCOCC4)NC(=O)CSC[C@@H](C(=O)NCC(N)=O)NC(=O)[C@H](CC(C)C)NC(=O)[C@H](Cc4cccs4)NC(=O)[C@H](C4CCCCC4)NC(=O)[C@@H]4CCCN4C(=O)[C@H](C(C)C)NC(=O)[C@@H](CCCNC(=N)N)NC(=O)[C@H](CC(=O)O)NC(=O)[C@H](Cc4ccccn4)NC(=O)CN(C)C3=O)cc2)cc1 [Example 452] ({CH2CO}-[Ala(morpholin-4-yl)][Bip][Bip(4'-NHAc)][Sar][2Pal]D[dR]VP[Chg][2Thi]LCG-NH2; thioether N-13)
10 | 0.05 to 0.2 | CC(C)C[C@@H]1NC(=O)[C@H](Cc2cccs2)NC(=O)[C@H](C(C)C)NC(=O)[C@@H]2CCCN2C(=O)[C@H](C(C)C)NC(=O)[C@@H](CCCNC(=N)N)NC(=O)[C@H](CC(=O)O)NC(=O)[C@H](Cc2ccccn2)NC(=O)CN(C)C(=O)[C@H](Cc2ccc(-c3ccc(NC(=O)c4cccc(OCC(=O)O)c4)cc3)cc2)NC(=O)[C@H](Cc2ccc(-c3ccc(C(=O)O)cc3)cc2)NC(=O)[C@H](C(C)(C)C)NC(=O)CSC[C@@H](C(=O)NCC(N)=O)NC1=O [Example 615] ({CH2CO}-[Tle][Bip(4'-COOH)][Bip(4'-NH)](Benzoyl(3-OCH2COOH))[Sar][2Pal]D[dR]VPV[2Thi]LCG-NH2; thioether N-13)
11 | 0.2 to 2 | CC(C)C[C@@H]1NC(=O)[C@H](CCCNC(=N)N)NC(=O)[C@H](C(C)C)NC(=O)[C@@H]2CCCN2C(=O)[C@H](C(C)C)NC(=O)[C@H](CCCNC(=N)N)NC(=O)[C@H](CC(=O)O)NC(=O)[C@@H]2CCCN2C(=O)CN(C)C(=O)[C@H](Cc2ccc(-c3ccccc3)cc2)NC(=O)[C@H](Cc2ccc(-c3ccccc3)cc2)NC(=O)[C@H](Cc2cccc(C(N)=O)c2)NC(=O)CSC[C@@H](C(=O)NCC(N)=O)NC1=O [Example 35] ({CH2CO}-[Phe(3-CONH2)][Bip][Bip][Sar]PDRVPVRLCG-NH2; thioether N-13)

More lines, now with the values behind:

Row | SMILES | IC50 [µM]
12 | CC[C@H](C)[C@@H]1NC(=O)[C@@H]2CCCN2C(=O)[C@H]([C@@H](C)CC)NC(=O)[C@@H](CCCNC(=N)N)NC(=O)[C@H](CC(=O)O)NC(=O)[C@H](Cc2ccccc2)NC(=O)CN(C)C(=O)[C@H](Cc2ccc(-c3ccc(NC(=O)c4csc(-c5ccncc5)n4)cc3)cc2)NC(=O)[C@H](Cc2ccc(-c3ccc(C(=O)O)cc3)cc2)NC(=O)[C@H](C(C)(C)C)NC(=O)CSC[C@@H](C(=O)NCC(N)=O)NC(=O)[C@H](CC(C)C)NC(=O)[C@H](Cc2cnc[nH]2)NC1=O [Example 353] ({CH2CO}-[Tle][Bip(4'-COOH)][Bip(4'-NH)](X20)[Sar]FD[dR]IPIHLCG-NH2; thioether N-13) | < 0.05
13 | CC(=O)Nc1ccc(-c2ccc(C[C@@H]3NC(=O)[C@H](Cc4ccc(-c5ccc(C(=O)O)cc5)cc4)NC(=O)[C@H](CC4CCCCC4)NC(=O)CSC[C@@H](C(=O)NCC(N)=O)NC(=O)[C@H](CC(C)C)NC(=O)[C@H](Cc4cccs4)NC(=O)[C@H](C(C)C)NC(=O)[C@@H]4CCCN4C(=O)[C@H](C(C)C)NC(=O)[C@@H](CCCNC(=N)N)NC(=O)[C@H](CC(=O)O)NC(=O)[C@@H]4CCCN4C(=O)CN(C)C3=O)cc2)cc1 [Example 245] ({CH2CO}-[Cha][Bip(4'-COOH)][Bip(4'-NHAc)][Sar]PD[dR]VPV[2Thi]LCG-NH2; thioether N-13) | 0.2 to 2
14 | CC(=O)Nc1ccc(-c2ccc(C[C@@H]3NC(=O)[C@H](Cc4ccc(-c5ccccc5)cc4)NC(=O)[C@H](CN4CCOCC4)NC(=O)CSC[C@@H](C(=O)N[C@@H](CCCCN)C(=O)O)NC(=O)[C@H](CC(C)C)NC(=O)[C@H](CCCNC(=N)N)NC(=O)[C@H](C(C)C)NC(=O)[C@@H]4CCCN4C(=O)[C@H](C(C)C)NC(=O)[C@@H](CCCNC(=N)N)NC(=O)[C@H](CC(=O)O)NC(=O)[C@@H]4CCCN4C(=O)CN(C)C3=O)cc2)cc1 [Example 169] ({CH2CO}-[Ala(morpholin-4-yl)][Bip][Bip(4'-NHAc)][Sar]PD[dR]VPVRLCK-OH; thioether N-13) | < 0.05
15 | CC(C)C[C@@H]1NC(=O)[C@H](Cc2ccc(O)cc2)NC(=O)[C@H](C)NC(=O)[C@@H]2CCCN2C(=O)[C@H](C(C)C)NC(=O)[C@@H](CCCNC(=N)N)NC(=O)[C@H](CC(=O)O)NC(=O)[C@H](Cc2ccc(O)cc2)NC(=O)CN(C)C(=O)[C@H](Cc2ccc(-c3ccccc3)cc2)NC(=O)[C@H](Cc2ccc(-c3ccccc3)cc2)NC(=O)[C@H](CN2CCOCC2)NC(=O)CSC[C@@H](C(=O)NCC(N)=O)NC1=O [Example 162] ({CH2CO}-[Ala(morpholin-4-yl)][Bip][Bip][Sar]YD[dR]VPAYLCG-NH2; thioether N-13) | 0.05 to 0.2
